In ChEMBL document CHEMBL2177080, “N-[5-(5-fluoropyridin-3-yl)-1H-pyrazol-3-yl]-4-piperidin-1-ylbutyramide (SEN78702, WYE-308775): a medicinal chemistry effort toward an α7 nicotinic acetylcholine receptor agonist preclinical candidate” (J Med Chem, 2012):
Blank lines part the entries; values can stand above or below the compound they belong to. Active and inactive are the calls of the source. No cut-off for these calls is given here.

Assays:
[1] = target: T1, Neuronal acetylcholine receptor subunit alpha-7 (Rattus norvegicus, UniProt Q05941); test: Agonist activity at rat alpha7 nAchR expressed in rat GH4C1 cells assessed as stimulation of calcium flux by FLIPR
[2] = Toxicity in rat during 7-day tolerability study; format: organism-based; conditions: in vivo
[3] = system: Rattus norvegicus; test: Inhibition of MK801-Induced prepulse inhibition deficits in Long Evans rat administered orally 60 mins before MK-801 challenge; format: functional; conditions: po, read-out: MED
[4] = system: Rattus norvegicus; test: Induction of memory enhancement Wistar rat administered orally 30 mins before acquisition trial by novel object recognition test; format: functional; conditions: po, read-out: MED
[5] = system: Rattus norvegicus; test: Inhibition of MK801-Induced prepulse inhibition deficits in Long Evans rat at 1 to 10 mg/kg, po administered 60 mins before MK-801 challenge; format: functional, organism-based
[6] = system: Rattus norvegicus; test: Induction of memory enhancement Wistar rat at 1 to 10 mg/kg, po administered 30 mins before acquisition trial pre-treated with 3 mg/kg alpha7 selective antagonist methyllycaconitin by novel object recognition test; format: functional, organism-based
[7] = system: Rattus norvegicus; test: Induction of memory enhancement Wistar rat at 1 to 10 mg/kg, po administered 30 mins before acquisition trial by novel object recognition test; format: functional, organism-based
[8] = target: Histamine H3 receptor (Homo sapiens) (UniProt Q9Y5N1); test: Inhibition of histamine H3 receptor at 10 uM
[9] = target: T2, Alpha-2C adrenergic receptor (Homo sapiens) (UniProt P18825); test: Inhibition of alpha2c adrenergic receptor at 10 uM
T2 sequence (whole entry): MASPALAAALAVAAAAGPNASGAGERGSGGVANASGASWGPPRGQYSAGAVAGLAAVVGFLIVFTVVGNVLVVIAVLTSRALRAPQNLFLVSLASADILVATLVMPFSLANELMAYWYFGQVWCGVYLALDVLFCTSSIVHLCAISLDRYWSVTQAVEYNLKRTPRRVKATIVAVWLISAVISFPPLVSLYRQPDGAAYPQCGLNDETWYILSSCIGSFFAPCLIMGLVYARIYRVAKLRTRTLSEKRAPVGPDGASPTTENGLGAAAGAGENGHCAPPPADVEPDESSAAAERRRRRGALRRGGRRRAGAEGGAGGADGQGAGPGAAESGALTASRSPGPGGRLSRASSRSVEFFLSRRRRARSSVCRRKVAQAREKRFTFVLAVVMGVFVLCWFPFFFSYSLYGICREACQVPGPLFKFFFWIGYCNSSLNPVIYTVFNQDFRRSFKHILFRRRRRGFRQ

[10] = target: T3, Alpha-2B adrenergic receptor (Homo sapiens) (UniProt P18089); test: Inhibition of alpha2b adrenergic receptor at 10 uM
T3 sequence (whole entry): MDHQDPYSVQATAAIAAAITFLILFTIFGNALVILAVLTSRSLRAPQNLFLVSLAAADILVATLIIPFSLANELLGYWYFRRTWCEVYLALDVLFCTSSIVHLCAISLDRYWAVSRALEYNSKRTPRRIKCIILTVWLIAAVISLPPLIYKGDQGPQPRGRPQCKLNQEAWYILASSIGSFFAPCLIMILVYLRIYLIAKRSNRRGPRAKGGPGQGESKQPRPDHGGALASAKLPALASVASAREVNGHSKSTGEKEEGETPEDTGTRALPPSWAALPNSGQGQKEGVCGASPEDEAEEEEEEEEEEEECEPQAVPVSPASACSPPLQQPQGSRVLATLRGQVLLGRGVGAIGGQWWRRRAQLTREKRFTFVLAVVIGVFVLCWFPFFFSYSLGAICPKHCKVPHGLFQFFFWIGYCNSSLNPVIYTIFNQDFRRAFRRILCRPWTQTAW

[11] = target: T4, Alpha-2A adrenergic receptor (Homo sapiens) (UniProt P08913); test: Inhibition of alpha2a adrenergic receptor at 10 uM
T4 sequence (whole entry): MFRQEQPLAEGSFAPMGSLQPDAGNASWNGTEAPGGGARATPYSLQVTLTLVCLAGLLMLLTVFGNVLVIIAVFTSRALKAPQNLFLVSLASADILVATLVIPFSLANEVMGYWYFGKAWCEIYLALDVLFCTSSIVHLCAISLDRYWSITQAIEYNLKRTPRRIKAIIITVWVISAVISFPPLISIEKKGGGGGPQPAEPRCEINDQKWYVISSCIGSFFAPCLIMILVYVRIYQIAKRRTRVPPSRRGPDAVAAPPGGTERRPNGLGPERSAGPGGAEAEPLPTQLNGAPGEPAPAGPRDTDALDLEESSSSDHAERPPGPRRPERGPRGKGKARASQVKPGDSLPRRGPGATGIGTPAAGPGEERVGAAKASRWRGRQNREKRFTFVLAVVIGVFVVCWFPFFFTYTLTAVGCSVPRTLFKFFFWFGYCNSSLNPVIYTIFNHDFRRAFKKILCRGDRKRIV

[12] = target: Neuronal acetylcholine receptor subunit alpha-7 (Homo sapiens, UniProt P36544); test: Agonist activity at human alpha7 nAchR by patch clamp assay; format: functional
[13] = target: T1, Neuronal acetylcholine receptor subunit alpha-7; test: Agonist activity at rat alpha7 nAchR expressed in rat GH4C1 cells by patch clamp assay; format: functional, cell-based, GH4-C1
[14] = target: T1, Neuronal acetylcholine receptor subunit alpha-7; test: Displacement of [3H]-epibatidine from rat alpha7 nAchR expressed in rat GH4C1 cell membranes; parameters: species or system GH4-C1, Membrane
[15] = Tmax in Wistar rat 10 mg/kg, po; format: ADME, organism-based; parameters: dose 10 mg/kg, route oral; conditions: in vivo
[16] = Cmax in Wistar rat brain 3 mg/kg, po; format: ADME, organism-based; parameters: dose 3 mg/kg, route oral
[17] = Clearance in Wistar rat 2 mg/kg, iv; format: ADME, organism-based; parameters: dose 2 mg/kg, route intravenous; conditions: in vivo
[18] = system: Plasma; test: Stability in rat plasma assessed as compound remaining incubated for 3 hrs; format: ADME, cell-free
[19] = target: Acetylcholine receptor; alpha1/beta1/delta/gamma (Homo sapiens, UniProt P02708+P07510+P11230+Q07001); test: Agonist activity at alpha1beta1gammadelta nAChR nAchR in human TE671 cells assessed as stimulation of calcium flux by FLIPR; format: functional, cell-based; conditions: for pIC50: TE-671
[20] = target: Neuronal acetylcholine receptor subunit alpha-3 (Homo sapiens, UniProt P32297); test: Agonist activity at alpha3 nAchR in human SH-SY5Y cells assessed as stimulation of calcium flux by FLIPR; format: functional, cell-based
[21] = target: Neuronal acetylcholine receptor subunit alpha-7 (Rattus norvegicus) (UniProt Q05941); test: Agonist activity at rat alpha7 nAchR expressed in rat GH4C1 cells assessed as stimulation of calcium flux by FLIPR relative to nicotine; format: functional, cell-based; conditions: GH4-C1
[22] = target: T5, 5-hydroxytryptamine receptor 3A (Homo sapiens) (UniProt P46098); test: (§1) Agonist activity at human 5HT3R expressed in HEK293 cells assessed as stimulation of calcium flux by FLIPR; format: functional, cell-based
T5 sequence (whole entry): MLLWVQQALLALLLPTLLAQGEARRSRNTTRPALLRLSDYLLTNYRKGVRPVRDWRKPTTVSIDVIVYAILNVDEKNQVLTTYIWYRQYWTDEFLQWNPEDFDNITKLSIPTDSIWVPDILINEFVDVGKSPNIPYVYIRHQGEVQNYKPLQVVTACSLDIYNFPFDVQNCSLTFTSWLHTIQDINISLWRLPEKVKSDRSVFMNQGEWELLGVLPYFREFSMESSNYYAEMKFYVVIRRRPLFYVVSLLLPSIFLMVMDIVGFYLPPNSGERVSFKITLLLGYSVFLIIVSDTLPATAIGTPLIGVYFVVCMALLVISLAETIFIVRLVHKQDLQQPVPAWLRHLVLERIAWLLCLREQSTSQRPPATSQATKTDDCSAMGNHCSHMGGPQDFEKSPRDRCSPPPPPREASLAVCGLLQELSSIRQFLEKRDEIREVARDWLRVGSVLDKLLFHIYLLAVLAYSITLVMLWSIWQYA

[23] = target: T6, 5-hydroxytryptamine receptor 3A (Homo sapiens, UniProt P46098); test: as §1; format: functional, cell-based
T6 sequence (P46098 whole entry): T5 sequence (whole entry)

[24] = target: Voltage-gated inwardly rectifying potassium channel KCNH2 (Homo sapiens, UniProt Q12809); test: Inhibition of human ERG expressed in CHO cells; format: cell-based
Voltage-gated inwardly rectifying potassium channel KCNH2, sequence (Q12809 whole entry): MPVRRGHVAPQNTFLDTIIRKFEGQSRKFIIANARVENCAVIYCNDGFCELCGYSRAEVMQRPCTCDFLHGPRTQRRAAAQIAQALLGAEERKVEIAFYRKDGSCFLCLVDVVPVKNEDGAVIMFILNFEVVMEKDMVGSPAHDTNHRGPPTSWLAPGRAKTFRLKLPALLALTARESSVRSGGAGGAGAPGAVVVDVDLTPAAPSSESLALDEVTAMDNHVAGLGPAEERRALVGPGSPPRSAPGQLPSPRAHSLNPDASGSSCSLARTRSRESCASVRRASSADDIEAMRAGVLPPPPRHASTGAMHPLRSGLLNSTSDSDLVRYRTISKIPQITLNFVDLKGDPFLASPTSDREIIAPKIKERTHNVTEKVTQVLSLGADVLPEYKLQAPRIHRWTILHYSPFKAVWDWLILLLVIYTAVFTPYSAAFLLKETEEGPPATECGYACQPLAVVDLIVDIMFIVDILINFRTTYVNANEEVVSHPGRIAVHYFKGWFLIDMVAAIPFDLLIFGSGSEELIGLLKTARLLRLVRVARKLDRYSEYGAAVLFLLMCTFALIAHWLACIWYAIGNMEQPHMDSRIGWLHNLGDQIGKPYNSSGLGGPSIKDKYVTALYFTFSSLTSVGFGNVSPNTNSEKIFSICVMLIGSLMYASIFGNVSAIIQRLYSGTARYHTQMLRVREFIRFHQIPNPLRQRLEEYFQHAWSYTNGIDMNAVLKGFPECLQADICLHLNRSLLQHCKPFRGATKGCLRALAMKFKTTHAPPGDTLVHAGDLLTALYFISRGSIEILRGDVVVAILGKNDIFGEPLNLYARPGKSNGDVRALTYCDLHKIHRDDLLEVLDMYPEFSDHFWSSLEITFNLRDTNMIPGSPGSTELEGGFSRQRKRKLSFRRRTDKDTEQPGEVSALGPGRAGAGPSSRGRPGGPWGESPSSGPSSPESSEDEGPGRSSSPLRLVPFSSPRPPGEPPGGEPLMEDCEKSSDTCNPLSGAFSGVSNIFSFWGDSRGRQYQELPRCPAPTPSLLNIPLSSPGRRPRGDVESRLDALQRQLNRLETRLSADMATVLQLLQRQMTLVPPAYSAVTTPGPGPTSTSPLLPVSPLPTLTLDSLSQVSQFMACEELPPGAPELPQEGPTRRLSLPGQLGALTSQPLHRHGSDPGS

Neuronal acetylcholine receptor subunit alpha-3, sequence (P32297 whole entry): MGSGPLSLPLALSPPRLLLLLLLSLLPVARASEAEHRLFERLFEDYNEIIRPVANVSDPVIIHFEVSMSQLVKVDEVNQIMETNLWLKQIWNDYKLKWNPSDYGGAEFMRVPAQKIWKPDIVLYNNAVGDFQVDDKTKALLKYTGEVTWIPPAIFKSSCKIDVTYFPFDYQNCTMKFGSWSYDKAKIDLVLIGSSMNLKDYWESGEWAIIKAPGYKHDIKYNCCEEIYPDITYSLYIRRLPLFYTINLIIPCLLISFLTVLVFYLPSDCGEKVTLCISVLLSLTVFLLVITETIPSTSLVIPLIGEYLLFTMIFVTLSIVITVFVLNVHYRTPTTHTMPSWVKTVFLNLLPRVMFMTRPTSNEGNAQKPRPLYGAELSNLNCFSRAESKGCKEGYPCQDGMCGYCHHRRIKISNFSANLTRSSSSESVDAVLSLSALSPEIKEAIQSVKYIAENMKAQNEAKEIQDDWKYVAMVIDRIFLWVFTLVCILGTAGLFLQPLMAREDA
T1 sequence (Q05941 whole entry): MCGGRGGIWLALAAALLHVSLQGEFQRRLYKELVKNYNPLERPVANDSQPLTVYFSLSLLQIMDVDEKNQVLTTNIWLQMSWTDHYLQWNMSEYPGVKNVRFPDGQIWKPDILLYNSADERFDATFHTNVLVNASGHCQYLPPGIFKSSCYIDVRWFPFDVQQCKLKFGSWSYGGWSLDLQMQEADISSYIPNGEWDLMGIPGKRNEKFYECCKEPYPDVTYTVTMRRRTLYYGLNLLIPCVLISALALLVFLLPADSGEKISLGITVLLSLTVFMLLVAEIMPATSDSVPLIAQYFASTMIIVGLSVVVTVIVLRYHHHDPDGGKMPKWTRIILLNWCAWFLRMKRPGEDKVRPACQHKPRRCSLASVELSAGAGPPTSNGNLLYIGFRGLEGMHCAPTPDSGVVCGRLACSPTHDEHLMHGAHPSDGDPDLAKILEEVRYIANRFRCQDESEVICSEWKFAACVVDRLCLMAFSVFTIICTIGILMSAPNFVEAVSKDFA
Neuronal acetylcholine receptor subunit alpha-7 (Rattus norvegicus), sequence (Q05941 whole entry): as above
Acetylcholine receptor; alpha1/beta1/delta/gamma, sequence (P02708 whole entry): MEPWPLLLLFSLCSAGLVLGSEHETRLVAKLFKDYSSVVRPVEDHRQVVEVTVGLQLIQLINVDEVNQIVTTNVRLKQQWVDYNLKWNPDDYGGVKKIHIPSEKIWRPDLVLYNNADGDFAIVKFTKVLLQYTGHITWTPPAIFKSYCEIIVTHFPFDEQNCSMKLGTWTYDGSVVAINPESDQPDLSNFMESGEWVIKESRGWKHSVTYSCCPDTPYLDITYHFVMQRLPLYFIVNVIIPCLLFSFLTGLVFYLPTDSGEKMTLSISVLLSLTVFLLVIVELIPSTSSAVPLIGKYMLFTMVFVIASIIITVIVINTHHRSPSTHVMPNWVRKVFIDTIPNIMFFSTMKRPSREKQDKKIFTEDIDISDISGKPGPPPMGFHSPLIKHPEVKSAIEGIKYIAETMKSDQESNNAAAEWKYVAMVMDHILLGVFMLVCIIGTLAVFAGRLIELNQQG
Acetylcholine receptor; alpha1/beta1/delta/gamma, sequence (P07510 whole entry): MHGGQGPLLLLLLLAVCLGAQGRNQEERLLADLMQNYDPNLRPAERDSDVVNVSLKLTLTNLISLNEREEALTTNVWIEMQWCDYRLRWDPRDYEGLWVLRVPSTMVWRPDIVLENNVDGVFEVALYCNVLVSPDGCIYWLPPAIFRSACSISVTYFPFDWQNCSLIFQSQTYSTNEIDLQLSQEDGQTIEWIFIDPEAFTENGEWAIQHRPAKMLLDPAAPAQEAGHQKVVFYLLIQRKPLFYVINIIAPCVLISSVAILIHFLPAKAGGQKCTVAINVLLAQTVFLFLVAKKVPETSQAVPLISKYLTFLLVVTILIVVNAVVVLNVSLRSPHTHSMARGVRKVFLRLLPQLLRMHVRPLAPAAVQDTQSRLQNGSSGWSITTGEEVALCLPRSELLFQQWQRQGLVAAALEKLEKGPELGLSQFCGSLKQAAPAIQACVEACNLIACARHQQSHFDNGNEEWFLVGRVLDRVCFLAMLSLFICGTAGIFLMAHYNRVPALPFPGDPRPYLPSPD
Acetylcholine receptor; alpha1/beta1/delta/gamma, sequence (P11230 whole entry): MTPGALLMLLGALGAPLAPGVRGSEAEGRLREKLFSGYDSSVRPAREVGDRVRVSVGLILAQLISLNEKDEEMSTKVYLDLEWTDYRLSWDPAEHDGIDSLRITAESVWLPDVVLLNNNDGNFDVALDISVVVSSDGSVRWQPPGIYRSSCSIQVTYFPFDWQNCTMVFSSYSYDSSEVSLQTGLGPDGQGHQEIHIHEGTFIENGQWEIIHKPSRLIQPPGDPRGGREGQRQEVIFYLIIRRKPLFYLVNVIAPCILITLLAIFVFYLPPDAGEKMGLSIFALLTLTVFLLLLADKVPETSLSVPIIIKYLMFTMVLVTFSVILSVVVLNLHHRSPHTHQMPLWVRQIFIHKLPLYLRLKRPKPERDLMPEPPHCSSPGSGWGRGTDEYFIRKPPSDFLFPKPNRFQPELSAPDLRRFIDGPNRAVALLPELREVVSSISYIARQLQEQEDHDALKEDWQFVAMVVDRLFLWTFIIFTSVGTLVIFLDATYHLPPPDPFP
Acetylcholine receptor; alpha1/beta1/delta/gamma, sequence (Q07001 whole entry): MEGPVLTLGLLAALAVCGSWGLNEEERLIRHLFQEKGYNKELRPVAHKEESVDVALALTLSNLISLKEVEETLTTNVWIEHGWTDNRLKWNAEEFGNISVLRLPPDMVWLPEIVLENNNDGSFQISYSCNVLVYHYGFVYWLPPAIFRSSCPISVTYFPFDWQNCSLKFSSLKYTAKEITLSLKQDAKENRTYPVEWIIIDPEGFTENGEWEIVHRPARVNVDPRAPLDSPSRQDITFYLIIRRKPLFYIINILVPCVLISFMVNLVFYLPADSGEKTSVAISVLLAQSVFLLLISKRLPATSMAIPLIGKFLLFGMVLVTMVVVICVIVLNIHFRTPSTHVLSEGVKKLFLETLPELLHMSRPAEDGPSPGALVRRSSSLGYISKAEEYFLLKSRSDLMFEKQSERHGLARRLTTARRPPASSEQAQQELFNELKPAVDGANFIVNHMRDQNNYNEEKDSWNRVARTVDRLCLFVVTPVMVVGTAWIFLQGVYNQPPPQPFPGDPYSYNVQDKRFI
Histamine H3 receptor (Homo sapiens), sequence (Q9Y5N1 whole entry): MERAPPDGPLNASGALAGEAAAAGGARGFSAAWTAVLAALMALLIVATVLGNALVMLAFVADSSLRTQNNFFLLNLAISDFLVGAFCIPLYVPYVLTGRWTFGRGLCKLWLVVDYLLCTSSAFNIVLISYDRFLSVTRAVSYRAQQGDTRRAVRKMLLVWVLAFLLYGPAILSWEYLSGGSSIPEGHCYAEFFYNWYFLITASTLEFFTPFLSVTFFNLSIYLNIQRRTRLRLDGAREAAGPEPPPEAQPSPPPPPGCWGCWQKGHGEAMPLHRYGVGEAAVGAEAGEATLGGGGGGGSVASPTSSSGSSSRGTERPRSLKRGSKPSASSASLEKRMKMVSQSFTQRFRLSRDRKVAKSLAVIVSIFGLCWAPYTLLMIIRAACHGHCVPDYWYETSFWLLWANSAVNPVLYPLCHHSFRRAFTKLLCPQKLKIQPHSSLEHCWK

EC50 [1]: 1170 nM
SMILES: COc1ccc(-c2cc(NC(=O)CCCN3CCCOCC3)[nH]n2)cc1

SMILES: O=C(CCCN1CCCCC1)Nc1cc(-c2cncc(F)c2)n[nH]1
MTD at 7 day [2]: ≤ 100 mg/kg/day
minimal effective dose [3]: 3 mg/kg
minimal effective dose [4]: 3 mg/kg
inhibition [5]: Active
Activity [6]: inactive
Activity [7]: Active
inhibition [8]: 62%
inhibition [9]: 57%
inhibition [10]: 64%
inhibition [11]: 73%
EC50 [12]: 10 µM
EC50 [13]: 10.7 µM
Ki [14]: 390 nM
Tmax [15]: 1 h
Cmax [16]: 55 ng/g
clearance [17]: 23 mL/min/kg
Stability [18]: Stable
EC50 [1]: 740 nM

Stability [18]: Stable
pIC50 [19]: Active
pIC50 [20]: Active
EC50 [1]: 468 nM
SMILES: COc1cccc(-c2cc(NC(=O)CCCN3CCCCC3)[nH]n2)c1

Emax [21]: > 90%
EC50 [1]: 8510 nM
SMILES: COc1ccc(-c2cc(NC(=O)CCN3CCCN(C(C)=O)CC3)[nH]n2)cc1

EC50 [1]: 6610 nM
SMILES: COc1ccc(-c2cc(NC(=O)CCCN3CCOCC3)[nH]n2)cc1

Emax [21]: > 90%
SMILES: COc1ccc(-c2cc(NC(=O)CCCCCN3CCCN(C(C)=O)CC3)[nH]n2)cc1

Stability [18]: Stable
Emax [21]: > 90%
EC50 [1]: 912 nM
SMILES: COc1ccc(-c2cc(NC(=O)CCCN3CCCN(C(C)=O)CC3)[nH]n2)cc1

SMILES: CC(C)(C)c1cc(NC(=O)CCCN2CCCCC2)[nH]n1
pIC50 [19]: inactive
pIC50 [22]: inactive
pIC50 [20]: inactive
EC50 [1]: > 31600 nM

Stability [18]: Stable
IC50 [19]: > 31.6 µM
IC50 [23]: > 31.6 µM
IC50 [20]: > 31.6 µM
EC50 [1]: 417 nM
SMILES: COc1ccc(-c2cc(NC(=O)CCCN3CCCCC3)[nH]n2)cc1

Stability [18]: Stable
pIC50 [19]: Active
pIC50 [20]: Active
EC50 [1]: 832 nM
SMILES: O=C(CCCN1CCCCC1)Nc1cc(-c2cccc(F)c2)n[nH]1
IC50 [24]: 1290 nM

EC50 [1]: 1200 nM
SMILES: COc1ccc(-c2cc(NC(=O)CCCCCN3CCCN(C(C)=O)CC3)n[nH]2)cc1

IC50 [19]: > 31.6 µM
IC50 [23]: > 31.6 µM
IC50 [20]: 7.94 µM
EC50 [1]: 912 nM
SMILES: COc1ccc(-c2cc(NC(=O)CCCN3CCCCCC3)[nH]n2)cc1
